What was measured:
[1] = UVA and UVB sunscreen activity, spectrophotometric study; format: physicochemical; settings: extract titrated to 5% umbelliferone, Parsol MCX as comparison
[2] = Anti-radical activity on radical propagation (hydroxyl radicals), evaluated on DPHH; settings: extract containing 5% umbelliferone; vitamin E as comparison
Method: Evaluation of the anti-radical activity
disappearance of the free radicals. Free radical traps act on the superoxide anion O2^- but also on the hydroxyl radicals. Thus, we have sought to evaluate the anti-radical activity on these two steps.
The activity on radical propagation, and thus on the hydroxyl radicals, is evaluated on DPHH, diphenyl-picrylhydrazyl hydrate, which is a stable, colored free radical.

specific extension coefficient at 310 nm [1]	IC50 on DPHH (radical propagation, hydroxyl radicals) [2] [µg/mL]	Compound
810		CCCCC(CC)COC(=O)C=Cc1ccc(OC)cc1 (centres unmarked) [Parsol MCX]
	6	vitamin E

From US5869031A, “Depigmenting dermatological and/or cosmetic composition” (priority 1995, dated 1999)
